Reference: ChEMBL document CHEMBL5244223, “l,8-Naphthalimide based DNA intercalators and anticancer agents. A systematic review from 2007 to 2017” (Eur J Med Chem, 2018)

Tests used:
HeLa [1] = assay: Antiproliferative activity against human HeLa cells assessed as inhibition of cell proliferation incubated for 48 hrs by coulter counter assay; assay type: functional, cell-based
L1210 = assay: Antiproliferative activity against mouse L1210 cells assessed as inhibition of cell proliferation incubated for 48 hrs by coulter counter assay; assay type: functional, cell-based; details: L1210, 48 h
CCRF-CEM = assay: Antiproliferative activity against human CEM cells assessed as inhibition of cell proliferation incubated for 48 hrs by coulter counter assay; assay type: functional, cell-based
[2] = Antiproliferative activity against human HMEC-1 cells assessed as inhibition of cell proliferation incubated for 48 hrs by coulter counter assay; assay type: toxicity, cell-based
HeLa [3] = assay: Cytotoxicity against human HeLa cells assessed as inhibition of cell growth incubated for 48 hrs by MTT assay; assay type: functional, cell-based
A549 = assay: Cytotoxicity against human A549 cells assessed as inhibition of cell growth incubated for 48 hrs by MTT assay; assay type: functional, cell-based; details: A549, 48 h
SMMC-7721 = assay: Antiproliferative activity against human SMMC-7721 cells assessed as inhibition of cell proliferation incubated for 48 hrs by MTT assay; assay type: functional, cell-based; details: SMMC-7721, 48 h
HepG2 = assay: Antiproliferative activity against human HepG2 cells assessed as inhibition of cell proliferation incubated for 48 hrs by MTT assay; assay type: functional, cell-based; details: HepG2, 48 h
MDA-MB-231 = assay: Antiproliferative activity against human MDA-MB-231 cells assessed as inhibition of cell proliferation incubated for 48 hrs by MTT assay; assay type: functional, cell-based; details: MDA-MB-231, 48 h
K562 = assay: Antiproliferative activity against human K562 cells assessed as inhibition of cell proliferation incubated for 48 hrs by MTT assay; assay type: functional, cell-based; details: K562, 48 h
HCT-116 = assay: Antiproliferative activity against human HCT-116 cells assessed as inhibition of cell proliferation incubated for 48 hrs by MTT assay; assay type: functional, cell-based; details: HCT-116, 48 h

Row | Compound | IC50 (HeLa [3]) [µM] | IC50 (A549) [µM] | IC50 (SMMC-7721) [µM] | IC50 (HepG2) [µM] | other results
1 | CCOP(=O)(CC(O)Cn1cc(CN2C(=O)c3cccc4c(Br)ccc(c34)C2=O)nn1)OCC (centres undefined) | – | – | – | – | IC50 (HeLa [1]): > 250 µM; IC50 (L1210): > 250 µM; IC50 (CCRF-CEM): > 250 µM; IC50 at 48 h [2]: > 250 µM
2 | CCOP(=O)(CCCn1cc(CN2C(=O)c3cccc4c(Br)ccc(c34)C2=O)nn1)OCC | – | – | – | – | IC50 (HeLa [1]): > 250 µM; IC50 (L1210): > 250 µM; IC50 (CCRF-CEM): > 250 µM; IC50 at 48 h [2]: > 250 µM
3 | CCOc1cccc(-c2cc(C(F)(F)F)nn2-c2ccc3c4c(cccc24)C(=O)N(CCN(C)C)C3=O)c1 | 5.06 | 5.06 | – | – | –
4 | CCOP(=O)(CC(O)Cn1cc(CN2C(=O)c3cccc4cccc(c34)C2=O)nn1)OCC (centres undefined) | – | – | – | – | IC50 (HeLa [1]): > 250 µM; IC50 (L1210): > 250 µM; IC50 (CCRF-CEM): > 250 µM; IC50 at 48 h [2]: > 250 µM
5 | CCCCN1C(=O)c2cccc3c2c(cc2c(=O)[nH]cnc23)C1=O | – | – | 2.64 | 2.64 | IC50 (MDA-MB-231): 2.64 µM
6 | CCOP(=O)(CC(=O)NCn1cc(CN2C(=O)c3cccc4c(Br)ccc(c34)C2=O)nn1)OCC | – | – | – | – | IC50 (HeLa [1]): > 250 µM; IC50 (L1210): > 250 µM; IC50 (CCRF-CEM): > 250 µM; IC50 at 48 h [2]: > 250 µM
7 | CCOc1cc(OCC)cc(-c2cc(C(F)(F)F)nn2-c2ccc3c4c(cccc24)C(=O)N(CCN(C)C)C3=O)c1 | 5.06 | 5.06 | – | – | –
8 | COc1ccc(-c2cc(C(F)(F)F)nn2-c2ccc3c4c(cccc24)C(=O)N(CCN(C)C)C3=O)cc1 | 5.06 | 5.06 | – | – | –
9 | CN(C)CCN1C(=O)c2cccc3c2c(cc2c(NCCCN4CCOCC4)ncnc23)C1=O | – | – | 1.12 | 1.12 | IC50 (MDA-MB-231): 1.12 µM
10 | NCCCCNCCCCNCCCCNCC(=O)NCCCN1C(=O)c2cccc3cccc(c23)C1=O | – | – | – | 2.86 | IC50 (K562): 2.86 µM; IC50 (MDA-MB-231): 2.86 µM; IC50 (HCT-116): 2.86 µM
11 | COc1ccccc1-c1cc(C(F)(F)F)nn1-c1ccc2c3c(cccc13)C(=O)N(CCN(C)C)C2=O | 5.06 | 5.06 | – | – | –
12 | CCCOc1cccc(-c2cc(C(F)(F)F)nn2-c2ccc3c4c(cccc24)C(=O)N(CCN(C)C)C3=O)c1 | 5.06 | 5.06 | – | – | –
13 | NCCCNCCCN1C(=O)c2cccc3c2c(cc2c(=O)[nH]cnc23)C1=O | – | – | 2.64 | 2.64 | IC50 (MDA-MB-231): 2.64 µM
14 | CCCCOc1cc(OCCCC)cc(-c2cc(C(F)(F)F)nn2-c2ccc3c4c(cccc24)C(=O)N(CCN(C)C)C3=O)c1 | 5.06 | 5.06 | – | – | –
15 | COc1cc(-c2cc(C(F)(F)F)nn2-c2ccc3c4c(cccc24)C(=O)N(CCN(C)C)C3=O)cc(OC)c1OC | 5.06 | 5.06 | – | – | –
16 | NCCCCN1C(=O)c2cccc3c2c(cc2c(=O)[nH]cnc23)C1=O | – | – | 2.64 | 2.64 | IC50 (MDA-MB-231): 2.64 µM
17 | CN(C)CCN1C(=O)c2cccc3c2c(cc2c(NCCCCN4CCCC4)ncnc23)C1=O | – | – | 1.12 | 1.12 | IC50 (MDA-MB-231): 1.12 µM
18 | CCOC(=O)c1ccc2c3c(cccc13)C(=O)N(CCN(C)C)C2=O | – | – | 13.7 | 25.9 | IC50 (K562): > 50 µM; IC50 (HCT-116): > 50 µM
19 | CCCOC(=O)c1ccc2c3c(cccc13)C(=O)N(CCN(C)C)C2=O | – | – | > 50 | > 50 | IC50 (K562): > 50 µM; IC50 (HCT-116): > 50 µM
20 | CCOc1ccc(-c2cc(C(F)(F)F)nn2-c2ccc3c4c(cccc24)C(=O)N(CCN(C)C)C3=O)cc1 | 5.06 | 5.06 | – | – | –
21 | O=C1c2cccc3c2c(cc2c(=O)[nH]cnc23)C(=O)N1CCCCN1CCOCC1 | – | – | 2.64 | 2.64 | IC50 (MDA-MB-231): 2.64 µM
22 | NCCCN1C(=O)c2cccc3cccc(c23)C1=O | – | – | 1.61 | 1.61 | –
23 | CCCCCCOC(=O)c1ccc2c3c(cccc13)C(=O)N(CCN(C)C)C2=O | – | – | > 50 | > 50 | IC50 (K562): > 50 µM; IC50 (HCT-116): > 50 µM
24 | Cc1ccc(-c2cc(C(F)(F)F)nn2-c2ccc3c4c(cccc24)C(=O)N(CCN(C)C)C3=O)cc1 | 5.06 | 5.06 | – | – | –

Row | Compound | IC50 (HeLa [3]) [µM] | IC50 (A549) [µM] | IC50 (SMMC-7721) [µM] | IC50 (HepG2) [µM] | other results
25 | COc1cccc(-c2cc(C(F)(F)F)nn2-c2ccc3c4c(cccc24)C(=O)N(CCN(C)C)C3=O)c1 | 5.06 | 5.06 | – | – | –
26 | COc1ccc(-c2cc(C(F)(F)F)nn2-c2ccc3c4c(cccc24)C(=O)N(CCN(C)C)C3=O)cc1OC | 5.06 | 5.06 | – | – | –
27 | CCCCOc1ccc(-c2cc(C(F)(F)F)nn2-c2ccc3c4c(cccc24)C(=O)N(CCN(C)C)C3=O)cc1 | 5.06 | 5.06 | – | – | –
28 | CCCCOC(=O)c1ccc2c3c(cccc13)C(=O)N(CCN(C)C)C2=O | – | – | > 50 | > 50 | IC50 (K562): > 50 µM; IC50 (HCT-116): > 50 µM
29 | COc1cc(OC)cc(-c2cc(C(F)(F)F)nn2-c2ccc3c4c(cccc24)C(=O)N(CCN(C)C)C3=O)c1 | 5.06 | 5.06 | – | – | –
30 | CCCCOc1cccc(-c2cc(C(F)(F)F)nn2-c2ccc3c4c(cccc24)C(=O)N(CCN(C)C)C3=O)c1 | 5.06 | 5.06 | – | – | –
31 | CCCCCOC(=O)c1ccc2c3c(cccc13)C(=O)N(CCN(C)C)C2=O | – | – | > 50 | > 50 | IC50 (K562): > 50 µM; IC50 (HCT-116): > 50 µM
32 | CCCCCCCCOC(=O)c1ccc2c3c(cccc13)C(=O)N(CCN(C)C)C2=O | – | – | > 50 | > 50 | IC50 (K562): > 50 µM; IC50 (HCT-116): > 50 µM
33 | CN(C)CCN1C(=O)c2cccc3c2c(cc2c(NCCCNCCCN)ncnc23)C1=O | – | – | 1.57 | 1.57 | IC50 (MDA-MB-231): 1.57 µM
34 | CCOc1ccccc1-c1cc(C(F)(F)F)nn1-c1ccc2c3c(cccc13)C(=O)N(CCN(C)C)C2=O | 5.06 | 5.06 | – | – | –
35 | CCCCOc1ccccc1-c1cc(C(F)(F)F)nn1-c1ccc2c3c(cccc13)C(=O)N(CCN(C)C)C2=O | 5.06 | 5.06 | – | – | –
36 | CCCOc1ccc(-c2cc(C(F)(F)F)nn2-c2ccc3c4c(cccc24)C(=O)N(CCN(C)C)C3=O)cc1 | 5.06 | 5.06 | – | – | –
37 | CCCCCCCCCCCCCCOC(=O)c1ccc2c3c(cccc13)C(=O)N(CCN(C)C)C2=O | – | – | > 50 | > 50 | IC50 (K562): > 50 µM; IC50 (HCT-116): > 50 µM
38 | CCCOc1cc(OCCC)cc(-c2cc(C(F)(F)F)nn2-c2ccc3c4c(cccc24)C(=O)N(CCN(C)C)C3=O)c1 | 5.06 | 5.06 | – | – | –
39 | NCCCNCCCN1C(=O)c2cccc3cccc(c23)C1=O | – | – | 1.61 | 1.61 | –
40 | CCCOc1ccccc1-c1cc(C(F)(F)F)nn1-c1ccc2c3c(cccc13)C(=O)N(CCN(C)C)C2=O | 5.06 | 5.06 | – | – | –
41 | CN(C)CCN1C(=O)c2cccc3c2c(cc2c(NCCCCN)ncnc23)C1=O | – | – | 1.12 | 1.12 | IC50 (MDA-MB-231): 1.12 µM
42 | CN(C)CCN1C(=O)c2cccc3c2c(cc2c(=O)[nH]cnc23)C1=O | – | – | 2.64 | 2.64 | IC50 (MDA-MB-231): 2.64 µM
43 | CN(C)CCNc1ncnc2c1cc1c3c(cccc32)C(=O)N(CCN(C)C)C1=O | – | – | 1.12 | 1.12 | IC50 (MDA-MB-231): 1.12 µM
44 | COC(=O)c1ccc2c3c(cccc13)C(=O)N(CCN(C)C)C2=O | – | – | 22.1 | 22.1 | IC50 (K562): > 50 µM; IC50 (HCT-116): > 50 µM
45 | CN(C)CCN1C(=O)c2cccc3c(-n4nc(C(F)(F)F)cc4-c4ccccc4)ccc(c23)C1=O | 5.06 | 5.06 | – | – | –
46 | NCCCNCCCNCC(=O)NCCCN1C(=O)c2cccc3cccc(c23)C1=O | – | – | – | 2.86 | IC50 (K562): 2.86 µM; IC50 (MDA-MB-231): 2.86 µM; IC50 (HCT-116): 2.86 µM
47 | NCCCNCC(=O)NCCCN1C(=O)c2cccc3cccc(c23)C1=O | – | – | – | 2.86 | IC50 (K562): 2.86 µM; IC50 (MDA-MB-231): 2.86 µM; IC50 (HCT-116): 2.86 µM
